What all share (assay type): cell-based, human
For assay [1], the system named is pre-stasis HMEC. The assay is described as follows: Growth of pre-stasis HMEC on different substrates. The following applies: compared with plastic. Here is the method:
Referring to FIG. 18, 184 HMEC, batch f, were grown in MM in primary culture and switched to M85 at passage 2. At passage 4 they were switched to M87 and grown on plastic (♦), laminin on plastic (▪), or laminin on LUMOX dishes (▴) (which allow the cells to grow on a gas-permeable substrate).
Referring to FIG. 19, pre-stasis 48RT HMEC were grown from primary culture in M85+oxytocin and switched at passage 6 to growth on laminin on plastic or plastic alone.

Assay [2] has as its system p16 protein. The assay is described as follows: Immunohistochemical staining for p16 protein and labeling index (LI) in pre-stasis HMEC. The following applies: 184 HMEC in M85, 48 days post-seeding, 20% O2. From the text:
Note the gradually increasing expression of p16 with passage and the gradual reduction in the growing population. Note also the reciprocity between positive labeling of the small cell population with BrdU and the positive staining of the larger cell population for p16 expression.
Referring now to FIGS. 3-5, which show pre-stasis growth of 184 HMEC in different media and immunohistochemical staining for p16 protein. 184 HMEC were started in M85 and subcultured at passage 2 into M85 with cholera toxin with or without oxytocin, in 20% O2. […] Note the large cells staining for p16 with the small cells still negative for p16 but positive for LI (indicative of DNA synthesis).
(§1) Short-term growth assays are done by measuring 24 hr labeling index (LI) at midconfluence and p16 expression and cell numbers at confluence in different media (as shown in FIG. 13). […] Other assays will transfer growing populations a few passages before stasis to media lacking specific components and assay LI and p16 (as shown in FIG. 12).

Assay [3] relates to pre-stasis HMEC. The assay is described as follows: Long-term growth of pre-stasis HMEC: total population doublings (PD) prior to stasis. The following applies: for total PD with oxytocin added to M85: oxytocin added at primary culture or passage 2. The protocol: See FIG. 7, where the increased PD shown by HMEC from specimen 184, batch ⋄, is also seen in HMEC obtained from the 2 other donors tested, 48R, batch T, and 240L, batch B. Specimen 240L was grown only in M85 with oxytocin from primary organoids. Specimen 48R was grown in M85±oxytocin from primary organoids. For comparison, growth of specimen 184 in MM is shown. 184 HMEC batch ⋄ and 48RT+oxytocin were grown in 20% O2. The other cultures were grown in 3% O2.
HMEC placed in a medium containing ˜1% serum and conditioned media (MM) have active growth for ˜15-30 PD; cells grown in a serum-free medium (MCDB170) show active proliferation for ˜10-20 PD; HMEC grown in MM in a low oxygen environment (3% vs. 20%) grow for an additional ˜4 PD.
as §1

Entries after “also recorded” stand apart in the source; their conditions may differ.

Consider laminin, for which the “proliferation as the cells approach stasis” value in assay [1] is recorded as “more proliferation occurred”.
On to `CC[C@H](C)[C@@H]1NC(=O)[C@H](Cc2ccc(O)cc2)NC(=O)[C@@H](N)CSSC[C@@H](C(=O)N2CCC[C@H]2C(=O)N[C@@H](CC(C)C)C(=O)NCC(N)=O)NC(=O)[C@H](CC(N)=O)NC(=O)[C@H](CCC(N)=O)NC1=O` [oxytocin], for which, in assay [2], the “p16 expression with oxytocin compared to without” value is recorded as “lower level of p16 expression”. Also, the “growth conditions at the lower oxytocin concentration” value in assay [3] (0.1 nM compared with 1.0 nM oxytocin) is recorded as “provided better growth conditions than 1.0 nM”. In addition, in assay [3] (184 HMEC in M85 with or without oxytocin), the “PD potential in the presence of oxytocin” value was “greatly increased PD potential; also recorded: significant increase in total PD”. Also, the “increase in population doublings by oxytocin” value in assay [3] (M85 base medium, about 45 PD to about 60 PD) came to 33%. The “total PD with oxytocin added to M85” value in assay [3] (M85 base medium) is “around 60 PD”; in assay [3] (M85 base medium, listed as Oxytocin) it was “up to 60 PD”.
